SMILES strings stand for the structures.

Test [1] has as its target T1, SMARCA4-HiBiT HeLa cells (protein which is expressed from the SMARCA4 gene) (Homo sapiens, UniProt P51532).
T1 construct: protein which is expressed from the SMARCA2 and SMARCA4 genes; host or cells: HeLa (SMARCA4-HiBiT engineered line)
Kind of test: SMARCA4 degradation assay (HiBiT-fusion HeLa cell line, 24 h, luminescence). The class given is cell-based. Summed up:
(§1)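 HiBiT-fusion HeLa lines, 8,000 cells/well, overnight attachment; cpd 10-pt series (typically 10 μM–300 pM), 24 h, 37° C. Lysis with LgBiT + HiBiT substrate, 10 min shaking at RT, luminescence read. DC50 from dose-response fit; % degradation also scored at 1 μM.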

Test [2] concerns the target T2, SMARCA2-HiBiT HeLa cells (protein which is expressed from the SMARCA2 gene) (Homo sapiens, UniProt P51531).
T2 construct: protein which is expressed from the SMARCA2 and SMARCA4 genes; host or cells: HeLa (SMARCA2-HiBiT engineered line)
Description: SMARCA2 degradation assay (HiBiT-fusion HeLa cell line, 24 h, luminescence). The class given is cell-based. Summed up: as §1

T1 sequence (P51532 whole entry): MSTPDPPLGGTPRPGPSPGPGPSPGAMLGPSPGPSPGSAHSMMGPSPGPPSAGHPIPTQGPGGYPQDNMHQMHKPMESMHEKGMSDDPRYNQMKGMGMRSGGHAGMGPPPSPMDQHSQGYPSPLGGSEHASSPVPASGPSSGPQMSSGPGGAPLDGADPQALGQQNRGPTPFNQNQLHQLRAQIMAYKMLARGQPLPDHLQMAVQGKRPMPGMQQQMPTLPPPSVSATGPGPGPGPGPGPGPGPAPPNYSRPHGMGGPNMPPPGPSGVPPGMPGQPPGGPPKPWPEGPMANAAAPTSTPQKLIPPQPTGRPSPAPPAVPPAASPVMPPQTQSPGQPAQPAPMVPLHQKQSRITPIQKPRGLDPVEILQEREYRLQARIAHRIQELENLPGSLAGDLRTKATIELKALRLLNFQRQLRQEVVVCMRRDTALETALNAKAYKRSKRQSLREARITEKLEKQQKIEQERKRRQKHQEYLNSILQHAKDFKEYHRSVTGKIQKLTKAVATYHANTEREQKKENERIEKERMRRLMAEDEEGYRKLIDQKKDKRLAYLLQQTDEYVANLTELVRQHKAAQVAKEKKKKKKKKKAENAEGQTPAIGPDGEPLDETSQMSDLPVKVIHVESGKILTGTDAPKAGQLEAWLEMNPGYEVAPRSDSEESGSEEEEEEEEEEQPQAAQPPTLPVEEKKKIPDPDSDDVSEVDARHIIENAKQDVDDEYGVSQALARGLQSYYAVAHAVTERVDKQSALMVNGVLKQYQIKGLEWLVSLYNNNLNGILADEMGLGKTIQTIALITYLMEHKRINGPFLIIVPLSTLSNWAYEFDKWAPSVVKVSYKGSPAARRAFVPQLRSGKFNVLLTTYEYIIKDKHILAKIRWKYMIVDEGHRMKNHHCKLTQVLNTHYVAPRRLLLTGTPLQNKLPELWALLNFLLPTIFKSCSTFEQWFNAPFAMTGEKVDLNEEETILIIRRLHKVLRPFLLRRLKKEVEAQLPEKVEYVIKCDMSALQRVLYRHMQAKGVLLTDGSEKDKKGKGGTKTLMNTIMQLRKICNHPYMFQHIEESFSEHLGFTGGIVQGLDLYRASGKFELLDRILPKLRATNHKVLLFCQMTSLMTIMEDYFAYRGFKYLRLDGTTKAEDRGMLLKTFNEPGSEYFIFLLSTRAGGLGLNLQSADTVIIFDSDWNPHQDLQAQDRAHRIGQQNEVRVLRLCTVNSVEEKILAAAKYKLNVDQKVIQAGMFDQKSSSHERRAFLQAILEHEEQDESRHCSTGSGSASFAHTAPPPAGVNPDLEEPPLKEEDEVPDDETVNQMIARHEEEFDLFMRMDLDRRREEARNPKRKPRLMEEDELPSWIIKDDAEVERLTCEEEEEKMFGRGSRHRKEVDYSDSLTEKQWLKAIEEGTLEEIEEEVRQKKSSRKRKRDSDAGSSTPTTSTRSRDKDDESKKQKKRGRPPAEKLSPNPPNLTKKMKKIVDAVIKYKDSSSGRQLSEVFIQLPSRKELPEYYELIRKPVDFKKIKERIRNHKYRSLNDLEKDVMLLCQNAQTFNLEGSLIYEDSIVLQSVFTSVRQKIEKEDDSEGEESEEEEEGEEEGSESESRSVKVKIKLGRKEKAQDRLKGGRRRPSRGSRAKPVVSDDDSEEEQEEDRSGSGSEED
T2 sequence (P51531 whole entry): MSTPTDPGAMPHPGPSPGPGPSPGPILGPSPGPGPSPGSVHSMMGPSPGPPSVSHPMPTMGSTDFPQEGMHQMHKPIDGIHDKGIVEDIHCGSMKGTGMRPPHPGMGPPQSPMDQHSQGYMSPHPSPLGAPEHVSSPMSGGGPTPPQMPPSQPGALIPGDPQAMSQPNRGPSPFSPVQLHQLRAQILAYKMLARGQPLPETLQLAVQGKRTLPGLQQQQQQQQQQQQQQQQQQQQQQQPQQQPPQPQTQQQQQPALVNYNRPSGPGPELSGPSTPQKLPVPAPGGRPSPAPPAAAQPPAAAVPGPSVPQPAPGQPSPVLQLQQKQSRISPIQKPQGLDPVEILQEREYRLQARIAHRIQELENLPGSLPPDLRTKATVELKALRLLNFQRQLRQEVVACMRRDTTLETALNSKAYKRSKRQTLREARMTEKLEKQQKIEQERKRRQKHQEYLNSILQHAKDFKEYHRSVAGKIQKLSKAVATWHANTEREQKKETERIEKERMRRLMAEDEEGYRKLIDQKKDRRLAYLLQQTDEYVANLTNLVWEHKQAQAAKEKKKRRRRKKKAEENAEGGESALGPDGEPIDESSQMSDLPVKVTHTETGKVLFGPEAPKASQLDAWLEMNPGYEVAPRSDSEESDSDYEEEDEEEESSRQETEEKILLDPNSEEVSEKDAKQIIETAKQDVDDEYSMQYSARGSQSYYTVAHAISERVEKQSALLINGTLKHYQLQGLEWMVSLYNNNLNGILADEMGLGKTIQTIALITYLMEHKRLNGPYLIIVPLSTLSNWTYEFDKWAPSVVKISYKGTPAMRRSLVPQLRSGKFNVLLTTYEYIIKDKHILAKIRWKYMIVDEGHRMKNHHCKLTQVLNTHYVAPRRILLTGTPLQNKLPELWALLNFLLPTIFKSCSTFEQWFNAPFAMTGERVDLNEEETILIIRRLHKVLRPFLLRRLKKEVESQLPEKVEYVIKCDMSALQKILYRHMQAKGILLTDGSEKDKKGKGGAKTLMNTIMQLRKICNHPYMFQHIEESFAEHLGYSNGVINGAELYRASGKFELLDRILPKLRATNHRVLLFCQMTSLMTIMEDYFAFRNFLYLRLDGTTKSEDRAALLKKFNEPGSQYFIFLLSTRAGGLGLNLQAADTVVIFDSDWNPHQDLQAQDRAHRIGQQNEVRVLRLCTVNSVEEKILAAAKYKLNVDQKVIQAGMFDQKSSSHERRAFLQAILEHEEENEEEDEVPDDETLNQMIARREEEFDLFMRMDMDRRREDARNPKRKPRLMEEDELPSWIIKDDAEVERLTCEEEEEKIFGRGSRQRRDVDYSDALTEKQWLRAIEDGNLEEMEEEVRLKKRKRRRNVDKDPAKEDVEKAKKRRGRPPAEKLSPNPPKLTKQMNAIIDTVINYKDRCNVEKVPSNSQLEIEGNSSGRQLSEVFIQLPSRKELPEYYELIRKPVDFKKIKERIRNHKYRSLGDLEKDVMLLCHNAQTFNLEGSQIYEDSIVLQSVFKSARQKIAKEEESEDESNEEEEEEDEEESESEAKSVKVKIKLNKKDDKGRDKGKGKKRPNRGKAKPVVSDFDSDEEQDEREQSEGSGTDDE

`Cc1cc(C(=O)NCC#Cc2nccc(N3CCN(c4cc(-c5ccccc5O)nnc4N)CC3)n2)nn1C` [Compound P-12, N-(3-(4-(4-(3-amino-6-(2-hydroxyphenyl)pyridazin-4-yl)piperazin-1-yl)pyrimidin-2-yl)prop-2-yn-1-yl)-1,5-dimethyl-1H-pyrazole-3-carboxamide]: the DC50 in test [1] and in test [2] was 50 to 500 nM throughout. In test [1], this compound returned an inhibition at 1 µM of 30 to 70%. The “SMARCA2 % Degradation @ 1 μM” value in test [2] (@ 1 μM) is listed as “++ (++=30-70%)”.

In test [1], `Nc1nnc(-c2ccccc2O)cc1N1CCCN(c2ccnc(C#CCNC(=O)NC3CCC3)n2)CC1` [Compound P-325, 0-[6-amino-5-(4-{2-[3-(3-cyclobutylureido)-1-propynyl]-4-pyrimidinyl}-1,4-diazepan-1-yl)-3-pyridazinyl]phenol] displayed a DC50 of 50 to 500 nM and an inhibition at 1 µM of 30 to 70%. The compound also gave a DC50 in test [2] of 500 to 5000 nM. Also, in test [2] (@ 1 μM), the “SMARCA2 % Degradation @ 1 μM” value is listed as “++ (++=30-70%)”.

Take `Nc1nnc(-c2ccccc2O)cc1N1CCCN(c2ccnc(C#CCn3ccc(-c4ccccn4)n3)n2)CC1` [Compound P-138, 2-(6-amino-5-(4-(2-(3-(3-(pyridin-2-yl)-1H-pyrazol-1-yl)prop-1-yn-1-yl)pyrimidin-4-yl)-1,4-diazepan-1-yl)pyridazin-3-yl)phenol]: in test [1], the DC50 is 50 to 500 nM and the inhibition at 1 µM fell in the range of 30 to 70%. This compound also registered a DC50 in test [2] of 50 to 500 nM. Further, in test [2] (@ 1 μM), the “SMARCA2 % Degradation @ 1 μM” value is “+++ (+++=>70%)”.

For `Oc1ccccc1-c1cc(N2CC3CCC(C2)N3c2ccnc(C#CCN3CCCCC3)n2)cnn1` [Compound P-369, 0-(5-{8-[2-(3-piperidino-1-propynyl)-4-pyrimidinyl]-3,8-diazabicyclo[3.2.1]oct-3-y1}-3-pyridazinyl)phenol], the figures for the DC50 in test [1] and in test [2] were 500 to 5000 nM and less than 50 nM, respectively. The compound also returned an inhibition at 1 µM in test [1] of less than 30%. Further, the “SMARCA2 % Degradation @ 1 μM” value in test [2] (@ 1 μM) is “++ (++=30-70%)”.

Consider `CN(C)CC#Cc1nccc(N2CCC3(CC2)CCN(c2cc(-c4ccccc4O)nnc2N)C3)n1` [Compound P-344, 0-[6-amino-5-(8-{2-[3-(dimethylamino)-1-propynyl]-4-pyrimidinyl}-2,8-diaza-2-spiro[4.5]decyl)-3-pyridazinyl]phenol], for which the DC50 was greater than 5000 nM in test [1] and less than 50 nM in test [2]. Also, the “SMARCA2 % Degradation @ 1 μM” value in test [2] (@ 1 μM) is given as “++ (++=30-70%)”.

For `Nc1nnc(-c2ccccc2O)cc1N1CCCN(c2ccnc(C#Cc3cccc4nccn34)n2)CC1` [Compound P-306, 0-[5-(4-{2-[2-(1,3a-diaza-4-indenyl)ethynyl]-4-pyrimidinyl}-1,4-diazepan-1-yl)-6-amino-3-pyridazinyl]phenol], in test [1], the DC50 lay within 500 to 5000 nM and the inhibition at 1 µM is less than 30%. The DC50 in test [2] lay within 500 to 5000 nM. Further, in test [2] (@ 1 μM), the “SMARCA2 % Degradation @ 1 μM” value is listed as “??”.

Regarding `C[C@@H]1CCN(c2cc(-c3ccccc3O)nnc2N)CCN1c1ccnc(C#CCN2CCC[C@@H]2C)n1` [Compound P-233, o-{5-[(R)-4-(2-{3-[(S)-2-methyl-1-pyrrolidinyl]-1-propynyl}-4-pyrimidinyl)-5-methyl-1,4-diazepan-1-yl]-6-amino-3-pyridazinyl} phenol], the DC50 in test [1] and in test [2] was less than 50 nM each time. This compound displayed an inhibition at 1 µM in test [1] of 30 to 70%. For the same compound, in test [2] (@ 1 μM), the “SMARCA2 % Degradation @ 1 μM” value is given as “++ (++=30-70%)”.

In test [1], `C[C@@H]1CCN(c2cc(-c3ccccc3O)nnc2N)CCN1c1ccnc(C#CCN2CCC3(CCC3)C2)n1` [Compound P-237, o-{5-[(R)-4-(2-{3-(6-aza-6-spiro| 3.4 | octyl)-1-propynyl}-4-pyrimidinyl)-5-methyl-1,4-diazepan-1-yl]-6-amino-3-pyridazinyl} phenol] gave a DC50 of less than 50 nM and an inhibition at 1 µM of 30 to 70%. Also, the DC50 in test [2] is less than 50 nM. Also, in test [2] (@ 1 μM), the “SMARCA2 % Degradation @ 1 μM” value is listed as “+++ (+++=>70%)”.

Turning to `Nc1nnc(-c2ccccc2O)cc1N1CCN(c2ccnc(C#CCNC(=O)c3cnn4cccnc34)n2)CC1` [Compound P-71, N-(3-(4-(4-(3-amino-6-(2-hydroxyphenyl)pyridazin-4-yl)piperazin-1-yl)pyrimidin-2-yl)prop-2-yn-1-yl)pyrazolo[1,5-a]pyrimidine-3-carboxamide], in test [1], the DC50 lay within 50 to 500 nM and the inhibition at 1 µM lay within 30 to 70%. The compound further showed a DC50 in test [2] of 50 to 500 nM. In test [2] (@ 1 μM), the “SMARCA2 % Degradation @ 1 μM” value is “++ (++=30-70%)”.

In test [1], `Nc1nnc(-c2ccccc2O)cc1N1CC2CC(C1)N2c1ccnc(C#CCN2CC(F)(F)C2)n1` [Compound P-204, o-[6-amino-5-(6-{2-[3-(3,3-difluoro-1-azetidinyl)-1-propynyl]-4-pyrimidinyl}-3,6-diazabicyclo[3.1.1]hept-3-yl)-3-pyridazinyl]phenol] gave a DC50 of 500 to 5000 nM and an inhibition at 1 µM of 30 to 70%. The same compound returned a DC50 in test [2] of 50 to 500 nM. In test [2] (@ 1 μM), the “SMARCA2 % Degradation @ 1 μM” value was “++ (++=30-70%)”.

Consider `CC(C)(C)OC(=O)N1CCC(F)(C#Cc2nccc(N3CCCN(c4cc(-c5ccccc5O)nnc4N)CC3)n2)CC1` [Compound P-349], for which, in test [1], the DC50 fell in the range of 50 to 500 nM and the inhibition at 1 µM lay in the range of 30 to 70%. The compound also yielded a DC50 in test [2] of 50 to 500 nM. Besides, in test [2] (@ 1 μM), the “SMARCA2 % Degradation @ 1 μM” value was “++ (++=30-70%)”.

For the compound `C[C@@H]1CCN(c2cc(-c3ccccc3O)nnc2N)CCN1c1cc(C#CCN(C)C)ncc1Cl` [Compound P-409, 0-{5-[(R)-4-{5-chloro-2-[3-(dimethylamino)-1-propynyl]-4-pyridyl}-5-methyl-1,4-diazepan-1-yl]-6-amino-3-pyridazinyl}phenol], the DC50 in test [1] and in test [2] was 50 to 500 nM in each case. The “SMARCA2 % Degradation @ 1 μM” value in test [2] (1 μM) is reported as “+ (+=<30%)”.

In test [1], `C[C@@H]1CCN(c2cc(-c3ccccc3O)nnc2N)CCN1c1ccnc(C#CCNc2ccn(C)n2)n1` [Compound P-331, 0-{5-[(R)-5-methyl-4-{2-[3-(1-methyl-3-pyrazolylamino)-1-propynyl]-4-pyrimidinyl}-1,4-diazepan-1-yl]-6-amino-3-pyridazinyl}phenol] returned a DC50 of 50 to 500 nM and an inhibition at 1 µM of less than 30%. In addition, the DC50 in test [2] lay within 50 to 500 nM. Besides, the “SMARCA2 % Degradation @ 1 μM” value in test [2] (@ 1 μM) is recorded as “++ (++=30-70%)”.

Take `Nc1nnc(-c2ccccc2O)cc1N1CCCN(c2ccnc(C#CCCNC(=O)c3cc4ncccn4n3)n2)CC1` [Compound P-23, N-(4-(4-(4-(3-amino-6-(2-hydroxyphenyl)pyridazin-4-yl)-1,4-diazepan-1-yl)pyrimidin-2-yl)but-3-yn-1-yl)pyrazolo[1,5-a]pyrimidine-2-carboxamide]: in test [1], the DC50 was in the range of 50 to 500 nM and the inhibition at 1 µM lay in the range of 30 to 70%. The DC50 in test [2] was 50 to 500 nM. For the same compound, in test [2] (@ 1 μM), the “SMARCA2 % Degradation @ 1 μM” value was “++ (++=30-70%)”.

Turning to `CC(=O)NCC#Cc1nccc(N2CCCN(c3cc(-c4ccccc4O)nnc3N)CC2)n1` [Compound P-122, N-(3-(4-(4-(3-amino-6-(2-hydroxyphenyl)pyridazin-4-yl)-1,4-diazepan-1-yl)pyrimidin-2-yl)prop-2-yn-1-yl)acetamide], the DC50 in test [1] and in test [2] was 500 to 5000 nM in each case. The compound also yielded an inhibition at 1 µM in test [1] of less than 30%. The “SMARCA2 % Degradation @ 1 μM” value in test [2] (@ 1 μM) is “++ (++=30-70%)”.

For the compound `COCC1CN(CC#Cc2nccc(N3CCN(c4cc(-c5ccccc5O)nnc4N)CC[C@H]3C)n2)CCO1` (stereo partly drawn) [Compound P-161, o-{5-[(R)-4-(2-{3-[2-(methoxymethyl)-4-morpholinyl]-1-propynyl}-4-pyrimidinyl)-5-methyl-1,4-diazepan-1-yl]-6-amino-3-pyridazinyl}phenol], in test [1], the DC50 is 50 to 500 nM and the inhibition at 1 µM was in the range of 30 to 70%. This compound also returned a DC50 in test [2] of 50 to 500 nM. Besides, the “SMARCA2 % Degradation @ 1 μM” value in test [2] (@ 1 μM) is recorded as “++ (++=30-70%)”.

On to `Nc1nnc(-c2ccccc2O)cc1N1CCCN(c2ccnc(C#CCN3CCCC3=O)n2)CC1` [Compound P-372, 1-[3-(4-{4-[3-amino-6-(o-hydroxyphenyl)-4-pyridaziny1]-1,4-diazepan-1-y1}-2-pyrimidinyl)-2-propynyl]-2-pyrrolidinone], for which, in test [1], the DC50 fell in the range of 50 to 500 nM and the inhibition at 1 µM is 30 to 70%. In test [2], this compound gave a DC50 of 50 to 500 nM. The “SMARCA2 % Degradation @ 1 μM” value in test [2] (@ 1 μM) was “+++ (+++=>70%)”.

Consider `Cc1ncsc1C(=O)NCC#Cc1nccc(N2CCN(c3cc(-c4ccccc4O)nnc3N)CC2)n1` [Compound P-62, N-(3-(4-(4-(3-amino-6-(2-hydroxyphenyl)pyridazin-4-yl)piperazin-1-yl)pyrimidin-2-yl)prop-2-yn-1-yl)-4-methylthiazole-5-carboxamide], for which the DC50 in test [1] and in test [2] was 50 to 500 nM throughout. In addition, in test [1], the inhibition at 1 µM was in the range of 30 to 70%. For the same compound, the “SMARCA2 % Degradation @ 1 μM” value in test [2] (@ 1 μM) is listed as “++ (++=30-70%)”.

With `Cc1cnc(C#CCn2ccnc2)nc1N1CCN(c2cc(-c3ccccc3O)nnc2N)CC[C@H]1C` [Compound P-227, o-{5-[(R)-4-{2-[3-(1-imidazolyl)-1-propynyl]-5-methyl-4-pyrimidinyl}-5-methyl-1,4-diazepan-1-yl]-6-amino-3-pyridaziny1} phenol], in test [1], the 50% degradation concentration (DC50) was 50 to 500 nM and the inhibition at 1 µM is 30 to 70%. The compound further displayed a DC50 in test [2] of 50 to 500 nM. In addition, in test [2] (@ 1 μM), the “SMARCA2 % Degradation @ 1 μM” value is on record as “+++ (+++=>70%)”.

With `C[C@@H]1CCN(c2cc(-c3ccccc3O)nnc2N)CCN1c1ccnc(C#CC2CN(CC(F)F)C2)n1` [Compound P-174, o-{5-[(R)-4-(2-{2-[1-(2,2-difluoroethyl)-3-azetidinyl]ethynyl}-4-pyrimidinyl)-5-methyl-1,4-diazepan-1-y1]-6-amino-3-pyridazinyl}phenol], in test [1], the DC50 was 50 to 500 nM and the inhibition at 1 µM lay in the range of 30 to 70%. In test [2], this compound came in with a DC50 of 50 to 500 nM. Moreover, the “SMARCA2 % Degradation @ 1 μM” value in test [2] (@ 1 μM) is given as “+++ (+++=>70%)”.

These data come from patent US20260265238A1, “COMPOUNDS AND PHARMACEUTICAL COMPOSITIONS THAT DEGRADE SWI/SNF-RELATED MATRIX-ASSOCIATED ACTIN-DEPENDENT REGULATOR OF CHROMATIN SUBFAMILY A” (Plexium, Inc., priority 2023, published 2026).
